Measurements taken from article PMC5146859, “Phase 1/2 study of pacritinib, a next generation JAK2/FLT3 inhibitor, in myelofibrosis or other myeloid malignancies” (Journal of Hematology & Oncology, 2016).

How the values were obtained:
patients with MF = assay: Phase 2 MF Quality of Life and Symptoms Assessment Tool; type: in vivo, human; settings: phase 2, 400 mg QD
Protocol: In phase 2, abdominal MRI to assess spleen and liver volume was performed on day 1 of cycles 1, 4, and 7 and then day 1 of every third cycle through cycle 25. Spleen size (length) was also assessed by manual palpation with each scheduled physical examination. The phase 2 study protocol was amended in September 2009 to include the MF Quality of Life and Symptoms Assessment Tool. […] The instrument was administered pre-dose on day 1 of cycles 1, 2, 4, 7, and 10 and then on day 1 of every third cycle through cycle 25.
The primary endpoint of the phase 2 component was the proportion of the efficacy population who achieved a ≥35% reduction in spleen volume from baseline at week 24, as measured by MRI. Spleen response rate was also assessed in terms of a ≥35% reduction in spleen volume by MRI up to week 24 and end of treatment and as a ≥50% reduction in spleen length by physical examination up to week 24 and end of treatment. Duration of response was not analyzed due to limitations in the proportion of responders. An exploratory endpoint was the proportion of patients with a ≥50% reduction in MF Quality of Life and Symptoms Assessment Tool at week 24 compared with baseline.

[1] = tested on: patients with advanced myeloid malignancies (MF, AML); assay: Phase 1 clinical benefit rate (IWG criteria); type: in vivo, human
Protocol: At screening/baseline, patients underwent a medical history, physical examination, vital sign assessment, ECOG PS assessment, electrocardiogram, and assessment of hematologic parameters and blood chemistry. Hematology/blood chemistry, physical examinations, and vital sign assessments were performed throughout treatment. Toxicity was assessed using the National Cancer Institute Common Terminology Criteria for Adverse Events (NCIC-CTCAE), version 3.0, with relationship to treatment assigned by the investigator and were recorded from the first dose of pacritinib until 30 days after the last dose. Bone marrow biopsy and/or aspirate samples were drawn at baseline, on day 1 of cycle 4 and cycle 10, as clinically indicated, and at the termination visit. Disease response and progression were determined using the relevant International Working Group (IWG) criteria. The primary objective of phase 1 was to establish the MTD of pacritinib in patients with advanced myeloid malignancies, defined as the highest dose level at which no more than one out of six patients in the cohort experienced a DLT during cycle 1 ([…]) of therapy. […] Secondary objectives in phase 1 of the study included safety and PK analysis. Clinical benefit rate was assessed as an exploratory endpoint, defined as the proportion of patients who experienced a complete response, partial response, clinical improvement, or stable disease (SD) during the study.

## C1=C/COCc2cc(ccc2OCCN2CCCC2)Nc2nccc(n2)-c2cccc(c2)COC/1 [pacritinib, 11-(2-pyrrolidin-1-yl-ethoxy)-14,19-dioxa-5,7,26-triaza-tetracyclo[19.3.1.1(2,6). 1(8,12)]heptacosa-1(25),2(26),3,5,8,10,12(27),16,21,23-decaene]
Patients with MF
  Individual symptoms and overall quality of life score: Improvement was seen in each of the individual symptoms
Patients with MF; N = 11
  Bone pain, Mean percent change from baseline at Week 24 (SD): -51.6 (43.04) %
  Night sweats, Mean percent change from baseline at Week 24 (SD): -31.3 (85.45) %
Patients with MF; N = 12
  Itching (pruritus), Mean percent change from baseline at Week 24 (SD): -62.6 (45.35) %
Patients with MF; N = 16
  Abdominal pain, Mean percent change from baseline at Week 24 (SD): -54.2 (58.14) %
  Overall quality of life, Mean percent change from baseline at Week 24 (SD): -38.1 (49.50) %
Patients with MF; N = 17
  Early satiety, Mean percent change from baseline at Week 24 (SD): -42.2 (37.53) %
Patients with MF; N = 18
  Fatigue – worst, Mean percent change from baseline at Week 24 (SD): -12.5 (63.55) %
  Total symptom score, Mean percent change from baseline at Week 24 (SD): -27.5 (39.01) %
Patients with MF; week 24 (7/18)
  Evaluable patients with ≥50% reduction in MF Quality of Life and Symptom Assessment total score: 38.9%
[1]; phase 1
  Dose–response correlation of clinical benefit: No clear dose–response correlation was observed
[1]; phase 1, n = 43
  Overall clinical benefit rate: 86.0%
  Patients achieving clinical improvement: 13 patients
  Patients having stable disease: 24 patients
[1]; phase 1, patients with AML (3/7)
  Clinical benefit rate: 42.9%
[1]; phase 1, patients with MF (34/36)
  Clinical benefit rate: 94.4%
